Laboratory results: ChEMBL document CHEMBL1201862, “PubChem BioAssay data set” (2004)
Where a name gives a salt, the structure may show the parent alone.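 Interpolation was linear, between the two tested concentrations surrounding the appropriate level; five concentrations were tested over 48 hours in 96-well plates. GI50: concentration for 50% inhibition of growth.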 Active and inactive are the calls of the source. Rule as the data show it: active = GI50 up to about 1.1 µM and inactive = higher.

How the values were obtained:
Test in all cases: NCI anticancer screen, dose series, 48 h
786-0 = tested on: 786-0
A498 = tested on: A498
A549 = tested on: A549
ACHN = tested on: ACHN
CAKI-1 = tested on: CAKI-1
CCRF-CEM = tested on: CCRF-CEM
COLO 205 = tested on: COLO 205
DU-145 = tested on: DU-145
EKVX = tested on: EKVX
HCC 2998 = tested on: HCC 2998
HCT-116 = tested on: HCT-116
HCT-15 = tested on: HCT-15
HL-60 = tested on: HL-60
HOP-62 = tested on: HOP-62
HOP-92 = tested on: HOP-92
HT-29 = tested on: HT-29
Hs-578T = tested on: Hs-578T
IGROV-1 = tested on: IGROV-1
K562 = tested on: K562
LOX IMVI = tested on: LOX IMVI
M14 = tested on: M14
MDA-MB-231 = tested on: MDA-MB-231
MDA-MB-435 = tested on: MDA-MB-435
MDA-N = tested on: MDA-N
MOLT-4 = tested on: MOLT-4
Malme-3M = tested on: Malme-3M
NCI-H226 = tested on: NCI-H226
NCI-H23 = tested on: NCI-H23
NCI-H460 = tested on: NCI-H460
NCI-H522 = tested on: NCI-H522
NCI/ADR-RES = tested on: NCI/ADR-RES
OVCAR-3 = tested on: OVCAR-3
OVCAR-4 = tested on: OVCAR-4
OVCAR-5 = tested on: OVCAR-5
OVCAR-8 = tested on: OVCAR-8
PC-3 = tested on: PC-3
RPMI-8226 = tested on: RPMI-8226
RXF 393 = tested on: RXF 393
SF-268 = tested on: SF-268
SF-295 = tested on: SF-295
SF-539 = tested on: SF-539
SK-MEL-28 = tested on: SK-MEL-28
SK-MEL-2 = tested on: SK-MEL-2
SK-MEL-5 = tested on: SK-MEL-5
SK-OV-3 = tested on: SK-OV-3
SN12C = tested on: SN12C
SNB-19 = tested on: SNB-19
SNB-75 = tested on: SNB-75
SR = tested on: SR
SW-620 = tested on: SW-620
T47D = tested on: T47D
U-251 = tested on: U-251
UACC-257 = tested on: UACC-257
UACC-62 = tested on: UACC-62
UO-31 = tested on: UO-31
KM12 = tested on: KM12
MCF7 = tested on: MCF7
TK-10 = tested on: TK-10

c1csc(-c2nn3c(C45CC6CC(CC(C6)C4)C5)nnc3s2)c1
GI50 (786-0): > 100 µM (inactive) | GI50 (A498): > 100 µM (inactive) | GI50 (A549): > 100 µM (inactive) | GI50 (ACHN): > 100 µM (inactive) | GI50 (CAKI-1): > 100 µM (inactive) | GI50 (CCRF-CEM): > 100 µM (inactive) | GI50 (COLO 205): > 100 µM (inactive) | GI50 (DU-145): > 100 µM (inactive) | GI50 (EKVX): > 100 µM (inactive) | GI50 (HCC 2998): > 100 µM (inactive) | GI50 (HCT-116): > 100 µM (inactive) | GI50 (HCT-15): > 100 µM | GI50 (HL-60): > 100 µM (inactive) | GI50 (HOP-62): > 100 µM (inactive) | GI50 (HOP-92): > 100 µM (inactive) | GI50 (HT-29): > 100 µM (inactive) | GI50 (Hs-578T): > 100 µM (inactive) | GI50 (IGROV-1): > 100 µM (inactive) | GI50 (K562): > 100 µM (inactive) | GI50 (LOX IMVI): > 100 µM (inactive) | GI50 (M14): > 100 µM (inactive) | GI50 (MDA-MB-231): > 100 µM (inactive) | GI50 (MDA-MB-435): > 100 µM (inactive) | GI50 (MDA-N): > 100 µM (inactive) | GI50 (MOLT-4): > 100 µM (inactive) | GI50 (Malme-3M): > 100 µM (inactive) | GI50 (NCI-H226): > 100 µM (inactive) | GI50 (NCI-H23): > 100 µM (inactive) | GI50 (NCI-H460): > 100 µM (inactive) | GI50 (NCI-H522): > 100 µM (inactive) | GI50 (NCI/ADR-RES): > 100 µM (inactive) | GI50 (OVCAR-3): > 100 µM (inactive) | GI50 (OVCAR-4): > 100 µM (inactive) | GI50 (OVCAR-5): > 100 µM (inactive) | GI50 (OVCAR-8): > 100 µM (inactive) | GI50 (PC-3): > 100 µM (inactive) | GI50 (RPMI-8226): > 100 µM (inactive) | GI50 (RXF 393): > 100 µM (inactive) | GI50 (SF-268): > 100 µM (inactive) | GI50 (SF-295): > 100 µM (inactive) | GI50 (SF-539): > 100 µM (inactive) | GI50 (SK-MEL-28): > 100 µM (inactive) | GI50 (SK-MEL-2): > 100 µM (inactive) | GI50 (SK-MEL-5): 93.3 µM (inactive) | GI50 (SK-OV-3): > 100 µM (inactive) | GI50 (SN12C): > 100 µM (inactive) | GI50 (SNB-19): > 100 µM (inactive) | GI50 (SNB-75): > 100 µM (inactive) | GI50 (SR): > 100 µM (inactive) | GI50 (SW-620): > 100 µM (inactive) | GI50 (T47D): > 100 µM (inactive) | GI50 (U-251): > 100 µM (inactive) | GI50 (UACC-257): > 100 µM (inactive) | GI50 (UACC-62): > 100 µM (inactive) | GI50 (UO-31): 47.5 µM (inactive)

Cc1ccc(S(=O)(=O)NC(=O)Nc2ccc(C(=O)O)c(O)c2)cc1
GI50 (786-0): > 100 µM (inactive) | GI50 (A498): 68.2 µM (inactive) | GI50 (A549): > 100 µM (inactive) | GI50 (ACHN): > 100 µM (inactive) | GI50 (CAKI-1): > 100 µM (inactive) | GI50 (CCRF-CEM): > 100 µM (inactive) | GI50 (COLO 205): > 100 µM (inactive) | GI50 (DU-145): > 100 µM (inactive) | GI50 (EKVX): > 100 µM (inactive) | GI50 (HCC 2998): > 100 µM (inactive) | GI50 (HCT-116): > 100 µM (inactive) | GI50 (HCT-15): > 100 µM | GI50 (HL-60): > 100 µM (inactive) | GI50 (HOP-62): > 100 µM (inactive) | GI50 (HOP-92): > 100 µM (inactive) | GI50 (HT-29): > 100 µM (inactive) | GI50 (Hs-578T): > 100 µM (inactive) | GI50 (K562): > 100 µM (inactive) | GI50 (KM12): > 100 µM (inactive) | GI50 (LOX IMVI): > 100 µM (inactive) | GI50 (M14): > 100 µM (inactive) | GI50 (MCF7): > 100 µM (inactive) | GI50 (MDA-MB-231): > 100 µM (inactive) | GI50 (MDA-MB-435): > 100 µM (inactive) | GI50 (MOLT-4): > 100 µM (inactive) | GI50 (Malme-3M): > 100 µM (inactive) | GI50 (NCI-H226): > 100 µM (inactive) | GI50 (NCI-H23): > 100 µM (inactive) | GI50 (NCI-H460): > 100 µM (inactive) | GI50 (NCI/ADR-RES): > 100 µM (inactive) | GI50 (OVCAR-3): > 100 µM (inactive) | GI50 (OVCAR-4): > 100 µM (inactive) | GI50 (OVCAR-5): > 100 µM (inactive) | GI50 (OVCAR-8): > 100 µM (inactive) | GI50 (PC-3): > 100 µM (inactive) | GI50 (RPMI-8226): > 100 µM (inactive) | GI50 (RXF 393): > 100 µM (inactive) | GI50 (SF-268): > 100 µM (inactive) | GI50 (SF-295): > 100 µM (inactive) | GI50 (SF-539): > 100 µM (inactive) | GI50 (SK-MEL-2): > 100 µM (inactive) | GI50 (SK-MEL-5): > 100 µM (inactive) | GI50 (SK-OV-3): > 100 µM (inactive) | GI50 (SNB-19): > 100 µM (inactive) | GI50 (SNB-75): > 100 µM (inactive) | GI50 (SR): > 100 µM (inactive) | GI50 (SW-620): > 100 µM (inactive) | GI50 (TK-10): > 100 µM (inactive) | GI50 (U-251): > 100 µM (inactive) | GI50 (UACC-62): > 100 µM (inactive) | GI50 (UO-31): > 100 µM (inactive)

Cn1c2nc3ccccc3c-2cc2ccccc21 [NEOCRYPTOLEPINE HYDROCHLORIDE]
GI50 (CCRF-CEM): 4.4 µM (inactive) | GI50 (COLO 205): 2.76 µM (inactive) | GI50 (DU-145): 12.8 µM (inactive) | GI50 (EKVX): 3.98 µM (inactive) | GI50 (HL-60): 3.62 µM (inactive) | GI50 (HT-29): 4.69 µM (inactive) | GI50 (IGROV-1): 4.6 µM (inactive) | GI50 (K562): 4.3 µM (inactive) | GI50 (LOX IMVI): 5.07 µM (inactive) | GI50 (MCF7): 3.21 µM (inactive) | GI50 (MDA-MB-435): 5.65 µM (inactive) | GI50 (NCI-H460): 3.29 µM (inactive) | GI50 (OVCAR-3): 6.4 µM (inactive) | GI50 (PC-3): 5.45 µM (inactive) | GI50 (SF-295): 6.34 µM (inactive) | GI50 (SF-539): 5.74 µM (inactive) | GI50 (SR): 2.93 µM (inactive) | GI50 (SW-620): 5.79 µM (inactive)
